The test system of one test is VCaP cells. The test can be described thus: Cellular growth inhibition assay for VCaP cells, CellTiter-Glo. Format: cell-based, human. To be noted: 72 hours treatment, CellTiter-Glo 2.0. An outline of the steps:
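GI50 values come from four-parameter curve fits of luminescence data normalized to a zero baseline. Compound, in medium with 0.5% DMSO, was added one day after plating and left for 72 h before CellTiter-Glo 2.0 addition.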

A further test has as its system T47D cells. The test can be described thus: Cellular growth inhibition assay for T47D cells, CellTiter-Glo. The settings on record: 72 hours treatment, CellTiter-Glo 2.0 cell viability. It is filed as cell-based, human. An outline of the steps: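 Cells are plated at 3000/well and allowed 24 h before treatment. Test compound in medium containing 0.5% DMSO is then added, with DMSO-only wells as negative control, and plates are incubated 72 h at 37 °C. ATP luminescence (CellTiter-Glo 2.0) is then fitted to four parameters to derive GI50.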

Structures are written as SMILES.

Regarding `Cc1sc2c(c1C)C(c1ccc(CC3CC4(CCN(c5ccc(C(=O)N[C@H]6C(C)(C)[C@H](Oc7ccc(C#N)c(Cl)c7)C6(C)C)cn5)CC4)C3)cc1)=N[C@@H](Cc1ncco1)c1nnc(C)n1-2` [Compound I-143], the GI50 in the test on VCaP cells and with T47D cells was below 500 nM in each case.
With `Cc1sc2c(c1C)C(c1ccc(N3CC(N4CCN(c5ncc(C(=O)N[C@H]6C(C)(C)[C@H](Oc7ccc(C#N)c(Cl)c7)C6(C)C)cn5)CC4)C3)cc1)=NC(Cc1ncco1)c1nnc(C)n1-2` (stereo partly shown) [Compound I-208], the concentration for 50% growth inhibition (GI50) with VCaP cells (Homo sapiens, VCaP, 72 h) is below 500 nM; in the test on T47D cells (Homo sapiens, T47D, 72 h), below 500 nM.

These data come from patent US20260062422A1 (Halda Therapeutics OpCo, Inc., priority 2022, published 2026).
